Laboratory results: patent publication US9631001B2, “Peptide antagonists of the vasopressin-2 receptor” (COMMISSARIAT A L'ENERGIE ATOMIQUE ET AUX ENERGIES …, priority 2012, dated 2017)

Experiments:
[1] = biological target: V2R (Homo sapiens, UniProt P30518); assay: AVP-induced MAP kinase phosphorylation (HTRF) in tsA cells expressing V2R; format: cell-based; parameters: expressed in transfected cells
Protocol: Eight hours and twenty-four hours later, the cells were starved with serum-free medium and stimulated another twenty-seven hours later. […] In a 384 well plate, to 16 μl of lysed cells first 2 μl of the antibody against phosphorylated ERK labeled with acceptor fluorophore (AC-ERK-P-d2 emitting at 665 nm) and then 2 μl of the antibody against total ERK labeled with donor fluorophore (AC-ERK-K emiting at 620 nm) were added. When ERK phosphorylation occurs, the acceptor in close vicinity of the donor is able to emit at 665 nm producing the FRET signal. The increase in the 665/620 ratio corresponds to the increase in MAP kinase phosphorylation. Two hours later, RT-FRET was measured on a laser-based HTRF® reader Rubystar with Rubystar software (BMG LABTECH).

[2] = system: CD1^pcy/pcy mice; assay: Long-term administration experiment (99 days); format: in vivo, mouse; conditions: 0.1 μmol/kg/day i.p.
Protocol: The toxin was dissolved in 0.9% NaCl at a concentration of 1 mg/ml and administered intraperitoneally to adult CD1^pcy/pcy mice at a dose of 0.1 μmol/kg/day. At 0, 30 70 and 99 days, urine was collected for 24 hours in metabolic cages and urine volume and urine osmolarity were determined.

[3] = biological target: vasopressin V2 receptor subtype (V2R) (Homo sapiens, UniProt P30518); assay: 3H-AVP competition binding on V2R membranes; conditions: affinity for the V2R, equilibrium binding, 3H-AVP (FIG. 2)
Chain of vasopressin V2 receptor subtype (V2R) (P30518 whole entry): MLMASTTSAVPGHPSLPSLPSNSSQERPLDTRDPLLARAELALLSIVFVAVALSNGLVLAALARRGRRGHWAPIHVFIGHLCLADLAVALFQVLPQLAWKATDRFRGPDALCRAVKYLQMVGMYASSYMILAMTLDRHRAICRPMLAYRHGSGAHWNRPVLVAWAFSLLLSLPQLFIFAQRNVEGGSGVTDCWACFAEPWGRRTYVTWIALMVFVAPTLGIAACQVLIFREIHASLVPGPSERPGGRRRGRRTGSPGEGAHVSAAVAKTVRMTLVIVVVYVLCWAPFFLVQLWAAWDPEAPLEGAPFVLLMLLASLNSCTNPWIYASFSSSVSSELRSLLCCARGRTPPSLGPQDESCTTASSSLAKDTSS
Protocol: Reaction mixtures contained 50 mM Tris-HCl, pH 7.4, 10 mM MgCl2 and 1 g/L BSA in a final volume of 100 μL. Plates were incubated for 3 h at room temperature. Binding reactions were stopped by filtration through a GF/C filter pre-soaked in 0.5% polyethyleneimine on a cell harvester ([sequence], Courtaboeuf, France) and plates were dried. […] A one-site inhibition mass action curve was fitted to inhibition binding data using Kaleidagraph (SYNERGY SOFTWARE, Reading, Pa., USA).

[4] = system: CD1^pcy/pcy mice; assay: Diuretic and urine osmolarity effect, single and increasing doses; format: in vivo, mouse
Protocol: The toxin was dissolved in 0.9% NaCl at a concentration of 1 mg/ml. Adult CD1^pcy/pcy (Takahashi et al., J. Urol., 1986, 135, 1280-1283, and J. Am. Soc. Nephrol., 1991, 1, 980-989 and Olbrich et al., Nature Genetics, 2003, 34, 455-459) and adult C57BL/6 mice were injected intraperitoneally and subcutaneously with the toxin at doses of 1, 0.1 and 0.01 μmol toxin/kg of body weight. One, three and five days after the first injection the mice were kept for 24 hours in metabolic cages. The collected urine was centrifuged for 30 minutes at 14,000 rpm. Urine osmolality (mOs/kg) was determined with a Knauer osmometer, urine volume (μl) was measured with a pipette.

[5] = biological target: T1, HCN4 (Homo sapiens, UniProt Q9Y3Q4); assay: IonWorks electrophysiological assay; format: cell-based; conditions: 1 μM
T1 construct: expressed in transfected cells
T1 sequence (Q9Y3Q4 1-1203): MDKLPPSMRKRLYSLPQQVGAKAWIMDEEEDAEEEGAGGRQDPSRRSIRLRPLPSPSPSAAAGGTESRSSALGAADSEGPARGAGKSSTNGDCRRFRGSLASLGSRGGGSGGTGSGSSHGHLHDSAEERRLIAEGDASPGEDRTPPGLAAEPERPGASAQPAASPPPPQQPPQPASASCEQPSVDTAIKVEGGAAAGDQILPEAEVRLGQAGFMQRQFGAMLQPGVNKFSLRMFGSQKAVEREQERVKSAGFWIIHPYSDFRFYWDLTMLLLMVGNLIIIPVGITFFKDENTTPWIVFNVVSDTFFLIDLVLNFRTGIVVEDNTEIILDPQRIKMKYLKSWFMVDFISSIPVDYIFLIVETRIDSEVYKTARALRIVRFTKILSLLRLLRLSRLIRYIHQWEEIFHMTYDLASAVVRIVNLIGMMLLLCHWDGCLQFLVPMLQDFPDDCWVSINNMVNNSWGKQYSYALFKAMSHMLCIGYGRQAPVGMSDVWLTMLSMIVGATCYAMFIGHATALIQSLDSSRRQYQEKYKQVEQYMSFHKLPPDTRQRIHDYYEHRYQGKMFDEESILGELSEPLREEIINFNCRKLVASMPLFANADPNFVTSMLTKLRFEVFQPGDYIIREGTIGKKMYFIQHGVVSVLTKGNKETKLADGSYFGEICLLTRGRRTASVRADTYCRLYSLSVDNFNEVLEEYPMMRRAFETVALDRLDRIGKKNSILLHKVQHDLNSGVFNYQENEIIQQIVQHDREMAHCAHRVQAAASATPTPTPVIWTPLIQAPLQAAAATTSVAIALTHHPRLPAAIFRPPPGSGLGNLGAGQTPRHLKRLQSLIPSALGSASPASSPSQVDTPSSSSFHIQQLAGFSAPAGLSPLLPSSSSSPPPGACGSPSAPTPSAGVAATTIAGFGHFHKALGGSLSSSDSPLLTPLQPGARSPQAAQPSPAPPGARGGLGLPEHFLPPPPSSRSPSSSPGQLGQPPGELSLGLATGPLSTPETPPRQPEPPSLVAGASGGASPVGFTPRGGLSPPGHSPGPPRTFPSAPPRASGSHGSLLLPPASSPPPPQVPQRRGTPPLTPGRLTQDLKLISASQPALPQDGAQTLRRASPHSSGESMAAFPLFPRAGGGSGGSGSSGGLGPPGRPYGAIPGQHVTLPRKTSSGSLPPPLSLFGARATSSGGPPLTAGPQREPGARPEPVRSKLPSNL
Protocol: (§1) The stock solution was transferred to a master plate and into assay plates where 2 μl per well of the solution were placed. On the day of the assay, 198 μl of external solution containing the appropriate DMSO concentration was added and mixed thoroughly. This provided a 1:100 dilution. A further 1:3 dilution occurred upon addition to the cells in the IonWorks, giving a 1:300 dilution in total. On each assay plate, at least 8 wells were reserved for vehicle control (0.3% DMSO) and at least 8 wells for each positive control specific to the cell line tested. The positive controls were tested at a maximal blocking and an approximate IC50 concentration. The compounds used for positive controls: Nav1.5 100 μM and 5 mM Lidocaine, Kv4.3/KChIP2 20 μM and 500 μM Quinidine, Cav1.2 1 μM and 100 μM Nitrendipine, Kv1.5 300 μM and 10 mM 4-AP, KCNQ1/minK 10 μM and 100 μM Chromanol 293B, hERG 0.1 μM and 1 μM Cisapride, HCN4 50 μM and 3 mM Cesium, Kir2.1 20 μM and 500 μM Barium.

[6] = biological target: T2, Cav1.2 (Homo sapiens, UniProt Q13936); assay: IonWorks electrophysiological assay; format: cell-based; conditions: 1 μM
T2 construct: expressed in transfected cells
T2 sequence (Q13936 whole entry): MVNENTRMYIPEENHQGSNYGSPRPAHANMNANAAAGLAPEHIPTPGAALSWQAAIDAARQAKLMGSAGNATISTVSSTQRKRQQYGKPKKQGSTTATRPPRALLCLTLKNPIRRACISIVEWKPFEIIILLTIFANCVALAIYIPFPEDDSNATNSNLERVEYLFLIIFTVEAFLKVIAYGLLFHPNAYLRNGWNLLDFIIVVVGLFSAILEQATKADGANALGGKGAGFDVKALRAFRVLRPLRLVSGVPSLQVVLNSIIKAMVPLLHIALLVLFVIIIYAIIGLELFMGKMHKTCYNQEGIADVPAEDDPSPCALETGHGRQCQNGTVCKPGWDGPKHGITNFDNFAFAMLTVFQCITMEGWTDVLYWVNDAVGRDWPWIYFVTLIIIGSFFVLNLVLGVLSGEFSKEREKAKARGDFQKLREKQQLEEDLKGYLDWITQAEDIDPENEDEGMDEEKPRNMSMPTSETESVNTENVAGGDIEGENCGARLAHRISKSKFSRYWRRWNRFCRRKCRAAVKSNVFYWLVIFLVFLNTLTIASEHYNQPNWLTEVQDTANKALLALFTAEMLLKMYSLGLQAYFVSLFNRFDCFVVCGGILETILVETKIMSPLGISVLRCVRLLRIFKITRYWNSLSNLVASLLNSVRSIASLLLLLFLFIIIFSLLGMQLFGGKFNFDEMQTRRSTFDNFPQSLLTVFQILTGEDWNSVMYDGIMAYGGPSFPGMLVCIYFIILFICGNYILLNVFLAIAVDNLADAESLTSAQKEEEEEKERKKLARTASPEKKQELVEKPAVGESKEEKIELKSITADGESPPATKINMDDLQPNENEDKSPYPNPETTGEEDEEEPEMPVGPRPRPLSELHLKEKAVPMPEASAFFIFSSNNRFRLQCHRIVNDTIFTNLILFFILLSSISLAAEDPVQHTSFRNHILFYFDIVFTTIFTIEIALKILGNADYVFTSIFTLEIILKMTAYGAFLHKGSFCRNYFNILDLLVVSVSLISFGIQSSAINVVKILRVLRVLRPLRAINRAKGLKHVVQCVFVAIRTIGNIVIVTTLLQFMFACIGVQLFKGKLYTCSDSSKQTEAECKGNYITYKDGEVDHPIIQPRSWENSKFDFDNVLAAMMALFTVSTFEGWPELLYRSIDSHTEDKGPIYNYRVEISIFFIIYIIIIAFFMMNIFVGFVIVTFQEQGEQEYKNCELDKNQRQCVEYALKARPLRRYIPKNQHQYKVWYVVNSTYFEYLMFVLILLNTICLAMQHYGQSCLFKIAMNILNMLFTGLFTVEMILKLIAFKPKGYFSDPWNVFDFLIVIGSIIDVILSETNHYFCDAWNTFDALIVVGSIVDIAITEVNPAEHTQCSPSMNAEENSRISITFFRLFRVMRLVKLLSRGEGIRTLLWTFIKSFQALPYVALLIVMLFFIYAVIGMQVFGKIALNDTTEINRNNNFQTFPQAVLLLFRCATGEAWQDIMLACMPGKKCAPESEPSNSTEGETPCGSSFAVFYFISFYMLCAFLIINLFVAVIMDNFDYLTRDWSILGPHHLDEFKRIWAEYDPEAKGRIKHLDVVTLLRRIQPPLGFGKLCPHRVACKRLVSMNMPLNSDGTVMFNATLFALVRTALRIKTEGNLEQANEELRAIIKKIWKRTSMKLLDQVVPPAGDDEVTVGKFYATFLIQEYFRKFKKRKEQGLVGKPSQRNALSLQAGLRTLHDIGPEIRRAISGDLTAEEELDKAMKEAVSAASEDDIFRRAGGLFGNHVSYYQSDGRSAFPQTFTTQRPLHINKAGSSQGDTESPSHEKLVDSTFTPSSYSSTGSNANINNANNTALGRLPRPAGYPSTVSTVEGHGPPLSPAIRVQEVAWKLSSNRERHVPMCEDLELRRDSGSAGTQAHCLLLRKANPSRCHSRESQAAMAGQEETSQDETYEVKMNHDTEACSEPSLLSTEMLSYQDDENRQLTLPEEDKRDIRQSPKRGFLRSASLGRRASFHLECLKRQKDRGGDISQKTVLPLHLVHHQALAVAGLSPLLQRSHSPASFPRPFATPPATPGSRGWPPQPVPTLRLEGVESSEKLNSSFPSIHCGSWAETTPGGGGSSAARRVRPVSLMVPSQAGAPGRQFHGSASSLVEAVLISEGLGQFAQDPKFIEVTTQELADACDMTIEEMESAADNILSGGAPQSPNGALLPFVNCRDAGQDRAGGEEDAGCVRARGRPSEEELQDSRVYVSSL
T2 sequence (Q08289 whole entry partner): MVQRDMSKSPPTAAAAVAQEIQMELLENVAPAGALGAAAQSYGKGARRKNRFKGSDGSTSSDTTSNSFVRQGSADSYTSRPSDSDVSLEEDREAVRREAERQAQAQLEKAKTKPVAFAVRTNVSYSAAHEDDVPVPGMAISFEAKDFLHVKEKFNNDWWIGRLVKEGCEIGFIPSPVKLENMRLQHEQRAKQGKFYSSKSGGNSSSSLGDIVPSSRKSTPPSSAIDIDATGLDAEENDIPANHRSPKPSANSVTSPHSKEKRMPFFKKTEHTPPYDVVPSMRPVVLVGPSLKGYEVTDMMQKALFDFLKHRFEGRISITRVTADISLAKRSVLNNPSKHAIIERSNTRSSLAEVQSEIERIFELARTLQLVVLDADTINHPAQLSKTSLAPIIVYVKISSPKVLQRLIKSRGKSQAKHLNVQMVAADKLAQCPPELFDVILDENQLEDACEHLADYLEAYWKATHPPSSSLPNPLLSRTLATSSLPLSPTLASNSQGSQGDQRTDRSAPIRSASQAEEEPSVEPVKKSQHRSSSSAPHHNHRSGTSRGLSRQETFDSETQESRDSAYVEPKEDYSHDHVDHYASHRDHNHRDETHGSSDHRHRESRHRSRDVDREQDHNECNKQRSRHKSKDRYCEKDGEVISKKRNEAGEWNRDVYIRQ
T2 sequence (P54289 25-956 partner limits assumed): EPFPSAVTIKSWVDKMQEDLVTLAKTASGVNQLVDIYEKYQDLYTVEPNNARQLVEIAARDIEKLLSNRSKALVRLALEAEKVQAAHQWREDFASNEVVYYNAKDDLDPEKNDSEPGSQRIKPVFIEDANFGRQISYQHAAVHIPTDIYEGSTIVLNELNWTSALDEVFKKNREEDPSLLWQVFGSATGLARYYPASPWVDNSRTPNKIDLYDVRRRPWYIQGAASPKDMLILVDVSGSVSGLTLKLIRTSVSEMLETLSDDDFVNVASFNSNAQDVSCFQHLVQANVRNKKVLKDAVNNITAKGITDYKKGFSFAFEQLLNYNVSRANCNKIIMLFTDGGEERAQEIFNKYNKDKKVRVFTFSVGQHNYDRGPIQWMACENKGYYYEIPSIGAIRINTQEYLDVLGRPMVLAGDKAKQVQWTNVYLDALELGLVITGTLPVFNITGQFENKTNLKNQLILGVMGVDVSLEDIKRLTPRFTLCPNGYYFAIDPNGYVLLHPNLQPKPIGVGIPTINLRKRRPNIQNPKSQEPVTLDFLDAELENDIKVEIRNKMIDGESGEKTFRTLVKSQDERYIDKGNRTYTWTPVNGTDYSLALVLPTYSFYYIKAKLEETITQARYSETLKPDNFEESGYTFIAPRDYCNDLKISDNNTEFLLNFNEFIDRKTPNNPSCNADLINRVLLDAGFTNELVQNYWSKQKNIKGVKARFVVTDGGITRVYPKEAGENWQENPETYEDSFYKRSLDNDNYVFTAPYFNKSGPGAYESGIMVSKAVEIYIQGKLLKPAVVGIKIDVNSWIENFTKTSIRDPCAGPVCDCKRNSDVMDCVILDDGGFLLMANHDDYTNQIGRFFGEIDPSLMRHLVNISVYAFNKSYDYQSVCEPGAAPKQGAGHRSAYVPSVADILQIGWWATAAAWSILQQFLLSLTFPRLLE
T2 sequence (P54289 957-1103 partner limits assumed): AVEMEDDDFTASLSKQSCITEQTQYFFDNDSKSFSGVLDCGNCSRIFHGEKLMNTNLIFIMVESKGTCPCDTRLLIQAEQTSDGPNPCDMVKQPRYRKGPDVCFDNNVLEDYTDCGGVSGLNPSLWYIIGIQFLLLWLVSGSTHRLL
Protocol: as §1

[7] = biological target: V1aR (Homo sapiens, UniProt P37288); assay: 3H-AVP competition binding on V1aR membranes; conditions: toxin at 1 μM
Protocol: Membranes from cells expressing vasopressin receptors were purchased from […] (Courtaboeuf, France). Binding experiments were performed with ^3H-AVP ([…], Courtaboeuf, France) in 96-well plates. Reaction mixtures contained 50 mM Tris-HCl, pH 7.4, 10 mM MgCl2 and 1 g/L BSA in a final volume of 100 μL. Plates were incubated for 3 h at room temperature. Binding reactions were stopped by filtration through a GF/C filter pre-soaked in 0.5% polyethyleneimine on a cell harvester ([…], Courtaboeuf, France) and plates were dried. Ultimagold O (25 μl; […]) was added to each well and samples were counted using a TopCount counter ([…], Courtaboeuf, France) (Counting yield of 55%). […] A one-site inhibition mass action curve was fitted to inhibition binding data using Kaleidagraph (SYNERGY SOFTWARE, Reading, Pa., USA). IC50 values were converted to Ki for competition experiments using the Cheng-Prusoff equation (Cheng et al., Biochem. Pharmacol., 1973, 22, 3099-3108).

[8] = i.p. or s.c. injection at 1 μmol/kg, 24 h urine, vs basal state

Chain of V2R (P30518 whole entry): as the sequence (P30518 whole entry) above

For `CC[C@H](C)[C@@H]1NC(=O)[C@H]([C@@H](C)O)NC(=O)[C@H](CO)NC(=O)[C@H](Cc2ccccc2)NC(=O)[C@H](CCCNC(=N)N)NC(=O)[C@H](CC(N)=O)NC(=O)[C@H](C)NC(=O)[C@H](CC(N)=O)NC(=O)CNC(=O)[C@H](CCCCN)NC(=O)[C@@H]2CSSC[C@@H]3NC(=O)[C@@H]4CCCN4C(=O)CNC(=O)[C@@H]4CCCN4C(=O)[C@H](CCCCN)NC(=O)[C@H](C(C)C)NC(=O)[C@@H]4CCCN4C(=O)[C@H](CC(C)C)NC(=O)[C@H](CC(N)=O)NC(=O)[C@@H](NC(=O)[C@H](Cc4ccccc4)NC(=O)[C@H](CO)NC(=O)[C@@H]4CCCN4C(=O)[C@@H](N)CCCNC(=N)N)CSSC[C@@H](C(=O)N[C@H](C(=O)NCC(=O)O)C(C)C)NC(=O)[C@H]([C@@H](C)O)NC(=O)[C@H](CCCNC(=N)N)NC(=O)[C@H](CCCNC(=N)N)NC(=O)[C@H](CSSC[C@H](NC(=O)[C@H](CCCCN)NC(=O)[C@H](CC(N)=O)NC(=O)[C@H]([C@@H](C)O)NC(=O)[C@H](CCCCN)NC(=O)[C@H](CCC(N)=O)NC(=O)[C@H](CO)NC(=O)[C@H](Cc4ccc(O)cc4)NC(=O)[C@H](Cc4ccc(O)cc4)NC(=O)[C@H](Cc4ccccc4)NC(=O)[C@H](C)NC(=O)[C@H](CO)NC(=O)[C@H](Cc4ccccc4)NC(=O)[C@H](Cc4ccccc4)NC(=O)CNC(=O)[C@H](CC(N)=O)NC3=O)C(=O)N[C@@H](Cc3c[nH]cn3)C(=O)N[C@@H](CO)C(=O)N[C@@H](Cc3ccccc3)C(=O)N[C@@H]([C@@H](C)O)C(=O)N[C@@H](Cc3ccc(O)cc3)C(=O)NCC(=O)NCC(=O)N2)NC(=O)[C@H](CCCCN)NC(=O)[C@H](CCC(=O)O)NC1=O` [U-Da2a], the Kb [1] was 126 nM, the “toxic effect after long-term daily injections” value [2] was “No toxic effect was detectable” and the Ki [3] was 2 to 5 nM. The “dose sufficient to observe the maximal effect” value ([4]; i.p.) was 0.1 µmol/kg, the urine osmolarity [4, 8] was “strong decrease in osmolarity” and the urine volume [4, 8] was “strong increase in urine volume”. For the same molecule, the “diuretic effect at increasing doses” value ([4]; i.p., 1, 0.1 and 0.01 μmol/kg) was “dose-dependent diuretic effect”, the “urine osmolarity at increasing doses” value ([4]; i.p., 1, 0.1 and 0.01 μmol/kg) was “decrease in urine osmolarity” and the “inhibition of HCN4” value [5] was “did not appear to exhibit significant inhibition”. The “inhibition of Cav1.2” value [6] was “did not appear to exhibit significant inhibition” and the “inhibition of 3H-AVP binding to V1aR” value [7] was “did not inhibit”.
